Measured values as given in patent publication US20250032581A1, “COMPOSITIONS AND ARTICLES COMPRISING AN ADNF POLYPEPTIDE” (RAMOT AT TEL-AVIV UNIVERSITY LTD., priority 2021, published 2025).

How the values were obtained:
[1] = tested on: Tyr mice; assay: Ultrasonic vocalizations (USV) and syntax analysis of P8 pups (DeepSqueak); format: in vivo, mouse
Description: The Intensity parameter is used to assess the effects of neuropathic pain, including mechanical allodynia. Max Contact Mean Intensity is the mean Intensity of a paw at Max Contact. Print length is the length (horizontal direction) of the complete print. The complete print is the sum of all contacts with the glass plate, as if the animal's paw would have been inked. Print width is the width (vertical direction) of the complete paw. Print area is the surface area of the complete print. Max Intensity is the maximum Intensity of the complete paw. Mean intensity is the mean Intensity of the complete paw. • USV: On P8, each pup was separated from the dam and placed in an empty cage for 6 minutes, in a quiet room and was recorded using the M500-384 USB Ultrasound Microphone (Petterson, Sweden). Pups were distinguished from one another using the tattoos listed above. After 6 minutes pups were reunited with its dam. Data were analyzed using DeepSqueak. Data were loaded onto DeepSqueak, frequencies between 40-70 kHz were analyzed using the mouse call network V2. Calls were denoised using post hoc denoising network. For syntax analysis, Syntax was classified using Wright K means network. Syntax transition probability charts were generated using DeepSqueak and Matlab. Further USV experiments were performed on P8 pups as previously described (12) with slight modifications.

[2] = tested on: Tau, tubulin; assay: Polymerized vs. soluble tubulin assay; format: cell-based, mouse; conditions: zinc 400 μM, 4 h, peptide 10^−12M
Protocol: Polymerized vs. soluble tubulin assay—To quantify tubulin polymerization and Tau-MT association, a simple assay was performed as previously described. The cells grown to confluence in six-well plates were washed with MT buffer (80 mM PIPES pH 6.8, 1 mM MgCl^2, 2 mM EGTA, 5% Glycerol) and lysed at room temperature for 5 min through centrifugation (300 g), with 150 μl of MT buffer with 0.5% Triton X-100 to extract soluble (cytosolic) tubulin (S). The pelleted cells were rinsed once again with an equal volume of modified RIPA lysis buffer (50 mM Tris-HCL pH 7.4, 150 mM NaCl, 2 mM EGTA, 1% Triton X-100, 0. 1% SDS, 0.1% sodium Deoxycholate) to collect the polymerized (cytoskeletal) tubulin (P). The cytosolic and cytoskeletal fractions were each mixed with sample buffer and heated at 95° C. for 5 min. An equal volume of each fraction was analyzed by immunoblotting with Tau, tubulin and actin antibodies, and the results following ECL development were quantified by densitometry (GelQuant.NET software provided by biochemlabsolutions(dot)com).
It is known that in the presence of extracellular zinc NAP protects MT against degradation by promoting Tau binding to the MT shaft. Polymerized vs. soluble tubulin assay was effected to compare protective activities of NAP and SKIP against MT degradation and Tau-MT dissociation (FIGS. 11F-G). After treatments with zinc (400 μM, 4 h) with and without NAP or SKIP (10^−12M, 4 h) the cellular-tubulin pool was separated into polymerized and soluble tubulin fractions. The amount of Tau, tubulin, and actin was identified by immunoblotting (FIG. 11F), followed by densitometric quantification (FIG. 11G).

[3] = tested on: Shank3-Adnp-actin interactions; assay: Actin co-immunoprecipitations from mouse brain extracts
Description: De novo heterozygous mutations in ADNP reproduced the autistic ADNP syndrome. ADNP mutations impair microtubule (MT) function, essential for synaptic activity. The ADNP MT-associating fragment NAPVSIPQ (NAP) (SEQ ID NO 2) contains an MT end-binding protein interacting domain, SxIP (mimicking the active-peptide, SKIP, SEQ ID NO 21). The inventors hypothesized that not all ADNP mutations are similarly deleterious and that the NAPV portion of NAPVSIPQ is biologically active. Using the eukaryotic linear motif (ELM) resource, the inventors identified a Src homology 3 (SH3) domain-ligand association site in NAP responsible for controlling signaling pathways regulating the cytoskeleton, namely NAPVSIP (SEQ ID NO: 2). Altogether, the inventors mapped multiple SH3-binding sites in ADNP. […] Site-directed-mutagenesis, abolishing the p.Lys408Valfs*31 SH3-binding motif, produced MT toxicity. […] Lastly, SH3 and multiple ankyrin repeat domains protein 3 (SHANK3), a major autism gene product, interact with the cytoskeleton through an actin-binding motif to modify behavior.

In the case of CC[C@H](C)[C@H](NC(=O)[C@H](CO)NC(=O)[C@@H](NC(=O)[C@@H]1CCCN1C(=O)[C@H](C)NC(=O)[C@@H](N)CC(N)=O)C(C)C)C(=O)N1CCC[C@H]1C(=O)N[C@@H](CCC(N)=O)C(=O)O [NAP, NAPVSIPQ], the “total USVs” value ([1]; Tyr female and male P8 pups) is reported as “no NAP effects”, the syntax ([1]; WT pups, data not shown) is reported as “minor varied impact on WT pups” and the “syntax transition probabilities, Xi square analysis Tyr vs. Tyr NAP” value ([1]; females, p<0.001) is reported as “significant improvement with NAP treatment”. The “syntax transition probabilities, Xi square analysis Tyr vs. Tyr NAP” value ([1]; males, p=0.027) was “same significant changes”, the “protection against Tau dissociation from MTs (soluble Tau ratio)” value [2] was “only NAP exhibited protection against Tau dissociation from MTs” and the “protection of polymerized tubulin against zinc” value [2] was “protected against zinc-induced decay”. For the same molecule, the Shank3-Adnp-actin interactions [3] was “NAP-mediated normalization of Shank3-Adnp-actin interactions”.
